The text below walks through data of ChEMBL document CHEMBL3526076, “Species-dependent and receptor-selective action of bilobalide on the function of constitutive androstane receptor and pregnane X receptor” (Drug Metab Dispos, 2012).

Data set [1] has as its system CAR mRNA. Description: Effect on CAR mRNA expression in rat hepatocytes at 30 uM by RT-PCR analysis relative to control. The format is ADME, cell-based, Hepatocyte. As to conditions: read-out: FC; call rule not given here.
For data set [2], the target named is T1, Nuclear receptor subfamily 1 group I member 3 (Rattus norvegicus, UniProt Q9QUS1).
T1 sequence (Q9QUS1 whole entry): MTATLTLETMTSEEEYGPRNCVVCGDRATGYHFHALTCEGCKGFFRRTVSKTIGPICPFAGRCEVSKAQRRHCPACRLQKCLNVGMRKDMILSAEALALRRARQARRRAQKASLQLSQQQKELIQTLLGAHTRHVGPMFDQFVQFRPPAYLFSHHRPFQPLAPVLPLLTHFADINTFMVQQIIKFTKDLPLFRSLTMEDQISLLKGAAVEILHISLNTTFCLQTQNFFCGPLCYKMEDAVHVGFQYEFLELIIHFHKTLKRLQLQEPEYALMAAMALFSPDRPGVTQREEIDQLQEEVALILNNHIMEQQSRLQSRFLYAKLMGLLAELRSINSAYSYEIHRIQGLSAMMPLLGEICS
Description: Activation of rat CAR expressed in rat hepatocytes coexpressing CYP2B1 at 0.1 to 10 uM after 24 hrs by dual luciferase reporter gene assay. The format is ADME, cell-based, Hepatocyte.

The test system of data set [3] is PXR mRNA. Nature of the data set: Effect on PXR mRNA expression in rat hepatocytes at 1 uM by RT-PCR analysis relative to control. The format is ADME, cell-based, Hepatocyte. Conditions: read-out: FC.
Data set [4] has as its target T1, Nuclear receptor subfamily 1 group I member 3. Description: Activation of CAR in rat hepatocytes assessed as increase in CYP2B-mediated benzyloxyresorufin O-dealkylation at 30 uM after 24 hrs by spectrofluorometric analysis relative to phenobarbital. The format is ADME, cell-based, Hepatocyte.
Data set [5] concerns the target T2, Nuclear receptor subfamily 1 group I member 3 (Homo sapiens, UniProt Q14994).
T2 sequence (Q14994 whole entry): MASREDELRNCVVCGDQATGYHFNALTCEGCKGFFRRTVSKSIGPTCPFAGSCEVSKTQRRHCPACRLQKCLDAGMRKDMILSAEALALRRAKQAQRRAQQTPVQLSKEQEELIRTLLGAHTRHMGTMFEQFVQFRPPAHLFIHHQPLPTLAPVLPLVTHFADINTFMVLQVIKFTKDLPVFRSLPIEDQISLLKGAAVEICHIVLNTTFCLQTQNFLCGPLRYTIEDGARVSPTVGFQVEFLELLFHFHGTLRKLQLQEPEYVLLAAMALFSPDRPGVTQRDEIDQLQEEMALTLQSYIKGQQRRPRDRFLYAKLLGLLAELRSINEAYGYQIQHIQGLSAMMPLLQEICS
Description: Activation of human CAR expressed in rat hepatocytes coexpressing CYP2B1 at 100 uM after 24 hrs by dual luciferase reporter gene assay. The format is ADME, cell-based, Hepatocyte.

In data set [6] the target is T3, Nuclear receptor subfamily 1 group I member 2 (Homo sapiens, UniProt O75469).
T3 sequence (O75469 whole entry): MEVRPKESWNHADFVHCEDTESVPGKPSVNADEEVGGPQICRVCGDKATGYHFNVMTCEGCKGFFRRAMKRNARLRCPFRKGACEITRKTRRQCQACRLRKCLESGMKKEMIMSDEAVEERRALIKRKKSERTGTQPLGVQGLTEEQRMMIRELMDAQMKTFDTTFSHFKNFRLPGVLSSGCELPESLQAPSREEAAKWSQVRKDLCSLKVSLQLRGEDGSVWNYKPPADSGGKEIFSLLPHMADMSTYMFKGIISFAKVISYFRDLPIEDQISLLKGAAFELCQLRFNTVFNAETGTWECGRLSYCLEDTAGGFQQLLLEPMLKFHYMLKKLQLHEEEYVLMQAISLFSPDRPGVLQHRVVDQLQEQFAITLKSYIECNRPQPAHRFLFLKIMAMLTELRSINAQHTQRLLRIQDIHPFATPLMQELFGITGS
Nature of the data set: Activation of PXR in human Hu1108 hepatocytes assessed as effect on CYP3A4 mRNA expression at 10 to 50 uM after 24 hrs by RT-PCR analysis. The class given is ADME, cell-based, Hepatocyte.

In data set [7] the target is T1, Nuclear receptor subfamily 1 group I member 3. Nature of the data set: Activation of CAR in rat hepatocytes assessed as upregulation of CYP2B1 mRNA expression at 10 uM after 24 hrs by RT-PCR analysis relative to phenobarbital. The class given is ADME, cell-based, Hepatocyte.
For data set [8] the target is unchanged. Nature of the data set: Activation of CAR in rat hepatocytes assessed as increase in CYP2B-mediated benzyloxyresorufin O-dealkylation at 3 uM after 24 hrs by spectrofluorometric analysis relative to phenobarbital. The class given is ADME, cell-based, Hepatocyte.
Data set [9] concerns the target T2, Nuclear receptor subfamily 1 group I member 3. Description: Activation of human CAR expressed in human HepG2 cells coexpressing CYP2B6 at 0.1 to 100 uM after 24 hrs by dual luciferase reporter gene assay. The class given is ADME, cell-based. As to conditions: hepg2, 24 h.
In data set [10] the target is T1, Nuclear receptor subfamily 1 group I member 3. Description: Activation of rat CAR expressed in rat hepatocytes coexpressing CYP2B1 at 60 uM after 24 hrs by dual luciferase reporter gene assay relative to phenobarbital. The format is ADME, cell-based, Hepatocyte.
The target is the same in data set [11]. Nature of the data set: Activation of rat CAR expressed in rat hepatocytes coexpressing CYP2B1 at 100 uM after 24 hrs by dual luciferase reporter gene assay relative to phenobarbital. The class given is ADME, cell-based, Hepatocyte.
Data set [12] has as its system CAR mRNA. Nature of the data set: Effect on CAR mRNA expression in human hepatocytes at 25 uM by RT-PCR analysis relative to control. The class given is ADME, cell-based, Hepatocyte. As to conditions: read-out: FC.
Data set [13] addresses T1, Nuclear receptor subfamily 1 group I member 3. Nature of the data set: Activation of CAR in rat hepatocytes assessed as upregulation of CYP2B1 mRNA expression at 30 uM after 24 hrs by RT-PCR analysis relative to phenobarbital. The class given is ADME, cell-based, Hepatocyte.
Data set [14] concerns the target T3, Nuclear receptor subfamily 1 group I member 2. Nature of the data set: Activation of PXR in human Hu1043 hepatocytes assessed as effect on CYP3A-mediated testosterone 6beta-hydroxylation at 10 to 60 uM after 24 hrs by HPLC analysis. The class given is ADME, cell-based, Hepatocyte.
For data set [15], the target named is T2, Nuclear receptor subfamily 1 group I member 3. Nature of the data set: Activation of CAR in human Hu1043 hepatocytes assessed as increase in CYP2B6-mediated bupropion hydroxylation at 10 to 60 uM after 24 hrs by LC-MS analysis. The class given is ADME, cell-based, Hepatocyte.
Data set [16] deals with PXR mRNA. Description: Effect on PXR mRNA expression in rat hepatocytes at 3 uM by RT-PCR analysis relative to control. The format is ADME, cell-based, Hepatocyte. Conditions: read-out: FC.
The target of data set [17] is T1, Nuclear receptor subfamily 1 group I member 3. Description: Activation of CAR in rat hepatocytes assessed as effect on CYP2B1 mRNA expression at 1 uM after 24 hrs by RT-PCR analysis. The format is ADME, cell-based, Hepatocyte.
Data set [18] deals with T4, Nuclear receptor subfamily 1 group I member 2 (Rattus norvegicus, UniProt Q9R1A7).
T4 sequence (Q9R1A7 whole entry): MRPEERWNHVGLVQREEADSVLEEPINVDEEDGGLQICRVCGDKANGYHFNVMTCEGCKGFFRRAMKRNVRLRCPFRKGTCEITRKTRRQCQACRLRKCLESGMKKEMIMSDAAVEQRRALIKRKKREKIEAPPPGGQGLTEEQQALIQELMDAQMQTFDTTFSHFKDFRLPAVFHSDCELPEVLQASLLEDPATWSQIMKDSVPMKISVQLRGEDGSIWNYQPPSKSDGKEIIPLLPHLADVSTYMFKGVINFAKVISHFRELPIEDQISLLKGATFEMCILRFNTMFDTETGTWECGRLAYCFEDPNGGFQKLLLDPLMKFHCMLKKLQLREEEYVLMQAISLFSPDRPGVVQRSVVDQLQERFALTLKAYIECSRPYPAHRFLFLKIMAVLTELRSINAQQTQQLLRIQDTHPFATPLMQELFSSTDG
Description: Activation of rat PXR expressed in rat hepatocytes coexpressing CYP3A4 at 100 uM after 24 hrs by dual luciferase reporter gene assay. The format is ADME, cell-based, Hepatocyte.

Data set [19] has as its system PXR mRNA. Description: Effect on PXR mRNA expression in rat hepatocytes at 10 uM by RT-PCR analysis relative to control. The format is ADME, cell-based, Hepatocyte. As to conditions: read-out: FC.

SMILES strings stand for the structures.

With `CC(C)(C)[C@]1(O)C[C@@H]2OC(=O)C[C@@]23C(=O)O[C@@H]2OC(=O)[C@H](O)[C@]213`, the fold induction at 30 µM in [1] was 1. For the same compound, the Activity result in data set [2] is “Not Active”; in data set [4], 83%; in data set [5], “Not Active”; in data set [6] it was “Not Active”; in [7], 18%; in data set [8], 44%. In addition, the Activity entry in data set [9] is “Not Active”; in [10] it was 176%; in data set [11] it was 115%; in data set [13], 37%; in data set [14] it was “Not Active”; in data set [15], “Not Active”. The Activity result in data set [17] and in data set [18] was “Not Active” in each case. In addition, in data set [3], the fold induction at 1 µM was 1.1. In addition, the fold induction at 25 µM in [12] stood at 1.4. Moreover, in data set [16], the fold induction at 3 µM was found to be 1. The fold induction at 10 µM in data set [19] turned out to be 1.4.
